From US20140045908A1, “HSP90 INHIBITORY COMPOUNDS IN TREATING JAK/STAT SIGNALING-MEDIATED CANCERS” (SYNTA PHARMACEUTICALS CORP., priority 2011, published 2014) come the findings set out here.

Experiment [1] deals with JAK2/STAT3 signaling in HCC827 cells. Briefly: Western blot of constitutive and IL-6 induced STAT3 activity in HCC827 cells. Type of experiment: cell-based, human. The procedure:
HCC827 lung cancer cells were treated with increasing concentrations of ganetespib or P6 for 24 h followed by a 15 min stimulation with or without 50 ng/ml human recombinant IL-6. The levels of JAK2, total and phospho-STAT3, and PIM2 were analyzed by western blot. GAPDH is included as a loading control.
(§1) Cells were disrupted in lysis buffer (CST) and solubilized in 2% SDS. Xenograft tumors (average volume of 100-200 mm3) were excised, cut in half, and flash frozen in liquid nitrogen. Each tumor fragment was lysed in 0.5 mL of lysis buffer using a FastPrep-24 homogenizer and Lysing Matrix A (MP Biomedicals, Solon, Ohio, USA) and lysates clarified by centrifugation. Equal amounts of proteins were resolved by SDS-PAGE and immunoblotted with indicated antibodies. The antigen-antibody complex was visualized and quantitated using an Odyssey system (LI-COR, Lincoln, Nebr., USA).

Experiment [2] concerns MV4-11 xenografts. Briefly: MV4-11 acute myeloid leukemia xenograft model. Type of experiment: in vivo, SCID mice. The procedure:
Mice bearing established MV4-11 xenografts (100-200 mm3, n=8 mice/group) were i.v. dosed (arrowheads) with ganetespib at either 25 or 150 mg/kg once weekly for 3 weeks, or at the HNSTD of 25 mg/kg five-times per week, as indicated. % T/C values are indicated to the right of each growth curve and the error bars are the s.e.m.
Eight-week-old female immunodeficient CB-17/Icr-Prkdcscid/Crl (SCID) mice (Charles River Laboratories, Wilmington, Mass.) were maintained in a pathogen-free environment, and all in vivo procedures were approved by the Synta Pharmaceuticals Corp. Institutional Animal Care and Use Committee. For the MV4-11 model, tumor cells were subcutaneously implanted in SCID mice as previously described (34). Tumor volumes (V) were calculated by caliper measurements of the width (W), length (L), and thickness (T) of each tumor using the formula: V=0.5236 (LWT).
Animals with 100-200 mm^3 tumors were then randomized into treatment groups of 8 and i.v. dosed via the tail vein at 10 mL/kg body weight with either vehicle or ganetespib formulated in 10/18 DRD (10% DMSO, 18% Cremophor RH 40, 3.6% dextrose, 68.4% water). Tumor growth inhibition was monitored by tumor volume measurements twice weekly. As a measurement of in vivo efficacy, the % T/C value was determined from the change in average tumor volumes of each treated group relative to the vehicle-treated or itself in the case of tumor regression. Statistical significance was determined using a Kruskal-Wallis one-way ANOVA followed by the Tukey Test multiple comparison procedure.
For both models, studies were conducted at the highest non-severely toxic doses (NHSTDs) of 150 mg/kg ganetespib one-time per week or 25 mg/kg ganetespib 5×/week for 3 weeks based on prior tolerability studies conducted in non-tumor bearing mice.

The subject of experiment [3] is Cdk1, phospho-Chk2, cyclins in HEL92.1.7 cells. Put plainly: Western blot of cell cycle proteins in HEL92.1.7 cells. Type of experiment: cell-based, human. The procedure: Cells were harvested at the indicated time points and the levels of total and phospho-Cdk1, phospho-Chk2 and GAPDH analyzed by western blot.
FIG. 12 illustrates the effects of ganetespib on JAK/STAT and cell cycle protein expression. HEL92.1.7 cells were treated with 100 nM ganetespib and subject to western blot to determine the levels of Cdk1, cyclin B1, cyclin A1, JAK2, total and phospho-STAT3, and GAPDH at hourly intervals over an 11 h time course.
as §1
On the technique in general: Immunoblotting shows a protein as a band on a membrane.

The test system of experiment [4] is JAK/STAT target and cell cycle gene expression in HEL92.1.7 cells. Put plainly: RNA expression profiling (RT-PCR, Affymetrix) in HEL92.1.7 cells. Type of experiment: cell-based, human. The method, then: HEL92.1.7 cells were treated with DMSO, P6 (100 or 1000 nM) or ganetespib (25 or 250 nM) for 4 h or 24 h, and total RNA extracted using Trizol (Invitrogen). RNA was purified with the RNeasy kit (Qiagen, Hilden, Germany) and converted to cDNA via an iScript kit (BioRad, Hercules, Calif., USA). Oligonucleotide primers were purchased from SABiosciences (Frederick, Md., USA). PCR was done with iQ SYBR Green Supermix (Bio-Rad), and levels of the tested genes were normalized to HPRT expression using the comparative Ct method.
Biotinylated aRNA was generated by in vitro transcription using Affymetrix GeneChip Expression IVT labeling kit (Affymetrix, Santa Clara, Calif., USA). Fifteen micrograms of labeled aRNA was fragmented and hybridized to Affymetrix GeneChip Human Genome U133 Plus 2 arrays and scanned using a GeneChip Scanner (Affymetrix). Array data were analyzed with the Affymetrix Expression Console Software utilizing the MASS algorithm. In order to generate a threshold for identifying probe sets that have large differences between 1000 nM P6 (4 h) and 250 nM ganetespib (24 h) arrays and their controls in the absence of treatment replicates, data from four control arrays (DMSO only; two at 4 h, and two at 24 h) were used to create an expression level dependent fold-difference envelope that reflects the increasing measurement variability as expression level decreases. This envelope, used in lieu of a fixed fold-difference criteria, was formed by identifying the xth percentile expression-level difference (where x was large, typically 99.9%) at each mean expression level bin. To achieve this, data were used from the six possible comparisons from the four DMSO-only arrays. The resulting, smoothed threshold fold-difference envelope was then applied to the two compound-treated/control array pairs to identify those probe-sets that have large expression level differences between treatment and control. For hierarchical analysis, genes with greater than two fold changes in expression with 250 nM ganetespib were clustered using established algorithms in Cluster (49) and a subset visualized by TreeView.

The mark [5] stands for this setting: 24 h, absence of external ligand.

For the molecule `CC(C)c1cc(-c2nnc(O)n2-c2ccc3c(ccn3C)c2)c(O)cc1O` [ganetespib, 3-(2,4-dihydroxy-5-isopropyl-phenyl)-4-(1-methyl-indol-5-yl)-5-hydroxy-[1,2,4] triazole], in experiment [1] (setting [5]), the JAK2 expression result was “dose-dependent decrease in JAK2 expression” and the “constitutive STAT3 activity” value is reported as “loss of STAT3 activity”. Further, the “JAK/STAT signaling stimulated by exogenous IL-6” value in experiment [1] (24 h then 15 min 50 ng/ml IL-6) is on record as “blocked JAK/STAT signaling stimulation”. The same molecule registered a tumor regression in experiment [2] (25 mg/kg i.v. 5×/week for 3 weeks) of 84%. The tumor growth inhibition result in experiment [2] (25 or 150 mg/kg i.v. once weekly for 3 weeks) was “significant and dose dependent tumor growth inhibition”. Also, in experiment [2] (both dosing regimens), the “time tumor growth stayed suppressed once treatment was discontinued” value is “up to a week or more”. The “level of phospho-Chk2” value in experiment [3] is on record as “reduced”. Also, the “cyclins A1 and B1 levels” value in experiment [3] (100 nM, 11 h time course) is “temporal accumulation of cyclins A1 and B1”. Also, in experiment [3] (ganetespib 250 nM or P6 1000 nM, 24-48 h), the Cdk1 protein expression entry is reported as “Reduced protein levels”. For the same molecule, in experiment [4] (250 nM, 24 h), the “expression of cell cycle-related genes” value is listed as “selectively altered the expression of a large set of genes involved in cell cycle-related activities” and the “expression of heat shock protein genes” value is given as “up-regulation of numerous heat shock protein genes”. For the same molecule, in experiment [4] (4 hour P6 (1000 nM), 24 hour ganetespib (250 nM)), the “expression of JAK/STAT target genes (SOCS and PIM family members)” value is “downregulated”.
